Here are results for five compounds from patent publication US11751586B2, “Compositions and methods for improving taste of non-nutritive sweeteners” (PEPSICO, INC., priority 2016, dated 2023).

“Also recorded” adds a separate entry of the source.

For data set [1], the target named is T1, sweet taste receptors T1R2/T1R3 (Homo sapiens, UniProt Q7RTX0+Q8TE23).
T1 construct: receptor internalization assay (“Ring Assay”) on an H716 cell line; endogenous in cells; host or cells: H716 cell line
T1 sequence (Q8TE23 20-839): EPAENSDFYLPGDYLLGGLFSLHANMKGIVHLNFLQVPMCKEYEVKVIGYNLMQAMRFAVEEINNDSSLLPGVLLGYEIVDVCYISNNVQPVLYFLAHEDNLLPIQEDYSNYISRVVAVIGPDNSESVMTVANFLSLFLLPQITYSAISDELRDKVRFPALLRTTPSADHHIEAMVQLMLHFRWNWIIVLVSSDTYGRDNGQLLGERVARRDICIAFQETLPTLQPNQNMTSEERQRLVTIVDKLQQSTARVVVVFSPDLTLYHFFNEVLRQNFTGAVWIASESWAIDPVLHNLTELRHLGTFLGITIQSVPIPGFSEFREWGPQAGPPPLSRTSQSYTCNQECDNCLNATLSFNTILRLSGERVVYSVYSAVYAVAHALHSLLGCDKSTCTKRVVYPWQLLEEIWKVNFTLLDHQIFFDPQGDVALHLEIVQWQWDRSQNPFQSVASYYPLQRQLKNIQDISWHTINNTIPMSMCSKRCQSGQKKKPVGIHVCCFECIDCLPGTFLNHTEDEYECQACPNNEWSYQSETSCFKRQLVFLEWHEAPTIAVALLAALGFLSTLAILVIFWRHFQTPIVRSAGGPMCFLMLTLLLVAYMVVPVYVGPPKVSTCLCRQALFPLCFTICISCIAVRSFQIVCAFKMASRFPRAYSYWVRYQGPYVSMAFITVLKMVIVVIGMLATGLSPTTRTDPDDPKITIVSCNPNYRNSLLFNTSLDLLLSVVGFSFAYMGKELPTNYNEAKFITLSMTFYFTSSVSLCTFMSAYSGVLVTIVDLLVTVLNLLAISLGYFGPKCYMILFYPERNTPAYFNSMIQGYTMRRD
T1 sequence (Q7RTX0 21-852): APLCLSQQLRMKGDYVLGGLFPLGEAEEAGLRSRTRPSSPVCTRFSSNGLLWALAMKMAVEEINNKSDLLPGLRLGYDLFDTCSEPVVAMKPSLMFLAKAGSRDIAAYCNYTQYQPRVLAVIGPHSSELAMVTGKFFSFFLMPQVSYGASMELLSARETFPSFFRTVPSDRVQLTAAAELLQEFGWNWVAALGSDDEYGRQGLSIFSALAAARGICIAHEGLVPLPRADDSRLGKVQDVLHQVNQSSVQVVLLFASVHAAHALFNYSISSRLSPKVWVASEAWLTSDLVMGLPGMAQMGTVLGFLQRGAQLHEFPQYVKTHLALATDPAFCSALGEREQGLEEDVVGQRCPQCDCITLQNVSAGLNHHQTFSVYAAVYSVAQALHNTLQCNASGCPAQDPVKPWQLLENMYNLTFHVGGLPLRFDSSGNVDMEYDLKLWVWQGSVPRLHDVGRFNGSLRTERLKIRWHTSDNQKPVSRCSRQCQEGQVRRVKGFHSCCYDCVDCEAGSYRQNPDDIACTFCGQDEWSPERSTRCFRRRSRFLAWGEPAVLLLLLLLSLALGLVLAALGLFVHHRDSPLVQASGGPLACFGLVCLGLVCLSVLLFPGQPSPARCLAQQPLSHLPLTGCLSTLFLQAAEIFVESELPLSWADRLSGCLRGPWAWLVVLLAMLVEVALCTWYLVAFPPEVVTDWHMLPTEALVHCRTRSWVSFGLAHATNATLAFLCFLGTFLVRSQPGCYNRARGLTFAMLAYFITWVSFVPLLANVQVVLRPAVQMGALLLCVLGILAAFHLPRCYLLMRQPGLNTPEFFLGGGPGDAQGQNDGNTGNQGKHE
Description: Taste receptor internalization assay (Ring Assay), sweet. In kind it is cell-based. The note with it: for EC50 value, sweet receptor dose response: combined with the stevia blend 4, Example 15; for slope of the dose response curve: with the stevia 4 blend, individual compound vs the combination of compounds 1 and 10, FIGS. 51, 52, 55. How it is done:
(§1) The control samples and samples I-X were tested for their ability to activate sweet taste receptors T1R2/T1R3, GLUT4, and Glucagon and bitter taste receptors T2R using a taste receptor internalization assay. Receptor activation and internalization was measured using images acquired by an IMAGEXPRESS Micro automated epifluorescence microscope (Molecular Devices Corporation). The images were analyzed with METAXPRESS 5.1 Workstation software, utilizing the Multiwaves Translocation Scoring analysis algorithm for nuclear and cytoplasmic segmentation. Curve fitting and parameter estimation were then analyzed with TIBCO SPOTFIRE.
(§2) Taste Receptor Internalization General Procedure:
The two control samples and Samples I-X were each serially diluted eight times at a ratio of […] in water (1 part sample to 2 parts water) and dose response was determined by conducting a receptor internalization assay (“Ring Assay”) on an H716 cell line with an HCI platform using the methods disclosed in PCT Patent Application Publication No. WO 2014/183041. Receptor internalization was measured at 5 and 15 minutes. EC50 values and Maximum-Minimum (“Max-Min”) values were calculated using SPOTFIRE software. Sweet, aftertaste, glucagon, and bitterness scoring were calculated using analysis of variance (ANOVA). A median value was then calculated by dividing the Max-Min value by the EC50 value for all time points. The median values, which represent receptor activity, were then plotted on radar graphs, as shown in FIGS. 9A-9B, 10A-10B, 11A-11B, 12A-12B, 13, 14A-14B, 15A-15B, 16A-16B, 17A-17B, 18A-18B, and 19.
Several sets of aqueous samples were prepared to study the dose response for the sweet taste receptors. One set of samples was prepared by adding the stevia blend 4 (1.3 wt % rebaudioside D and 6.7 wt % SG95) to water and adding 0.32 wt % potassium sorbate. Malic acid was added to the solution until the pH was 3.5. Eleven sets of aqueous samples were prepared by separately combining the same stevia 4 blend with either 2-methylbutanol or one of the compounds listed in Table 4. Another set of samples was prepared by adding sugar to water. Four additional sets of aqueous samples were prepared by separately combining each of the stevia blend 4, above, and sugar with either compounds 1 and 10 or compounds 2, 6, and 10 from Table 4. One final set of aqueous samples was prepared by combining the stevia blend 4, above, with compounds 1, 2, 3, and 10 from Table 4. Each set of samples were serially diluted and had concentrations ranging from about 0.001 nM to about 100 μM.
The aqueous samples were tested at varying concentrations for their ability to activate the sweet taste receptors in accordance with the procedures described in Example 8. Dose response curves were generated for the stevia 4 blend, sugar, and each compound-stevia 4 blend combination.

Data set [2] deals with Glucagon. The data set is described as follows: Taste receptor internalization assay (Ring Assay), glucagon. It is filed as cell-based. The note with it: added to 8% stevia blend 3 base solution; compared to the sample with compound 2. Here is the method:
as §1, §2
(§3) The two control samples and Samples I-X were each serially diluted eight times at a ratio of 1:1 in water (1 part sample to 2 parts water) and dose response was determined by conducting a receptor internalization assay (“Ring Assay”) on an H716 cell line with an HCI platform using the methods disclosed in PCT Patent Application Publication No. WO 2014/183041. Receptor internalization was measured at 5 and 15 minutes. EC50 values and Maximum-Minimum (“Max-Min”) values were calculated using SPOTFIRE software. Sweet, aftertaste, glucagon, and bitterness scoring were calculated using analysis of variance (ANOVA). A median value was then calculated by dividing the Max-Min value by the EC50 value for all time points. […]

Data set [3] has as its system bitter taste receptors T2R. Description: Taste receptor internalization assay (Ring Assay), bitter. In kind it is cell-based. How it is done:
as §1, §2, §3

Data set [4] concerns sweet taste receptors T1R2/T1R3, GLUT4, and Glucagon and bitter taste receptors T2R. The data set is described as follows: Taste receptor internalization assay, overall receptor response profile. It is filed as cell-based. The note with it: Sample X vs Sample IX; FIG. 10A. How it is done: as §1, §2, §3
The conditions of data set [5]: compared with other steviol glycosides; cited from earlier work.
The conditions of data set [6]: compared with Rebaudioside A; cited from earlier work.
The mark [7] stands for this setting: added to 0.2% stevia blend 3 base solution, Example 11.
The mark [8] stands for this setting: added to 8 wt % stevia blend 3 base solution, Examples 10 and 11.

For `CCCC[C@@H]1OC(=O)C[C@H]1C` (relative stereo) [Compound 10, Trans-4-Methyl-5-butyldihydro-2(3H)-furanone], in data set [1], the “EC50 value, sweet receptor dose response” value is recorded as “smaller” and the “slope of the dose response curve” value is given as “smaller”.
Regarding `CCC(C)CO` (centres unmarked) [2-methylbutanol], in data set [2], the glucagon receptor response entry was “significantly lower”. For the same compound, the sweet receptor response result in data set [1] (setting [7]) is reported as “high sweet”. In addition, the “sweetness (sweet receptor) response” value in data set [1] (setting [8]) is listed as “low sweet; also recorded: significantly lower”. In addition, the bitterness receptor response result in data set [3] (setting [7]) is “high sweet and bitterness”; in data set [3] (setting [8]), “no bitterness”.
With `CCCCOC(C)=O` [Compound 1, Butyl Acetate], in data set [1], the “EC50 value, sweet receptor dose response” value is reported as “smaller” and the “slope of the dose response curve” value is listed as “smaller”.
As for `CC(C)CCO` [Compound 2, 3-Methylbutanol], in data set [4], the “effect on the taste profile of stevia” value is listed as “sweet/glucagon enhancer”. The “EC50 value, sweet receptor dose response” value in data set [1] is “low”. Moreover, the taste modulator classification result in data set [1] (for the stevia 4 blend, FIG. 57) is “sweet enhancer”.
As for `C=C1C[C@@]23CC[C@H]4[C@@](C)(CCC[C@@]4(C)C(=O)O[C@@H]4O[C@H](CO)[C@@H](O)[C@H](O)[C@H]4O[C@@H]4O[C@H](CO)[C@@H](O)[C@H](O)[C@H]4O)[C@@H]2CC[C@]1(O[C@@H]1O[C@H](CO)[C@@H](O)[C@H](O[C@@H]2O[C@H](CO)[C@@H](O)[C@H](O)[C@H]2O)[C@H]1O[C@@H]1O[C@H](CO)[C@@H](O)[C@H](O)[C@H]1O)C3` [Rebaudioside D], the taste profile result in data set [5] is “almost lacking the bitterness and lingering licorice aftertaste”. For the same compound, the water solubility result in data set [6] is on record as “less water soluble than Rebaudioside A”.
